Species on record: Rattus norvegicus
Assay: DrugMatrix - Regimen: Daily Repeat
Format: toxicity, organism-based, Sprague-Dawley
Set-up: regimen Daily Repeat, gender Male, age 6-8 weeks
Conditions: in vivo, po, route oral GAVAGE, vehicle .5 % CMC; for BASOPHIL / EOSINOPHIL / ERYTHROCYTE COUNT / HEMATOCRIT / LEUKOCYTE COUNT / LYMPHOCYTE / MEAN CORPUSCULAR HEMOGLOBIN / MEAN CORPUSCULAR HEMOGLOBIN CONCENTRATION / MEAN CORPUSCULAR VOLUME / MONOCYTE / NEUTROPHIL / PLATELET COUNT: tissue Blood; for ALANINE AMINOTRANSFERASE / ALBUMIN / ALKALINE PHOSPHATASE / ASPARTATE AMINOTRANSFERASE / BLOOD UREA NITROGEN / CHLORIDE / CHOLESTEROL / CREATININE / GLUCOSE / PHOSPHORUS / POTASSIUM / TOTAL BILIRUBIN / TOTAL PROTEIN: tissue Plasma
[1] = 0 mg/kg, 72 h, dose level Control, time 3 day
[2] = 0 mg/kg, 120 h, dose level Control, time 5 day
[3] = 10 mg/kg, 72 h, dose level Low, time 3 day
[4] = 10 mg/kg, 120 h, dose level Low, time 5 day
[5] = 52 mg/kg, 72 h, dose level High, time 3 day
[6] = 52 mg/kg, 120 h, dose level High, time 5 day

## CNCCC(Oc1ccc(C(F)(F)F)cc1)c1ccccc1 (configuration not stated) [FLUOXETINE]
[1]
  BASOPHIL: 0%
  EOSINOPHIL: 0%
  ERYTHROCYTE COUNT: 6.34 x10E6/uL
  HEMATOCRIT: 37.62%
  LEUKOCYTE COUNT: 11.18 x10E3/uL
  LYMPHOCYTE: 87.5%
  MEAN CORPUSCULAR HEMOGLOBIN: 23.48 pg
  MEAN CORPUSCULAR HEMOGLOBIN CONCENTRATION: 39.5 G/DL
  MEAN CORPUSCULAR VOLUME: 59.45 fL
  MONOCYTE: 1.67%
  NEUTROPHIL: 10.83%
  PLATELET COUNT: 1074.83 x10E3/uL
  ALANINE AMINOTRANSFERASE: 36.5 u/L
  ALBUMIN: 3.9 G/DL
  ALKALINE PHOSPHATASE: 370.17 u/L
  ASPARTATE AMINOTRANSFERASE: 63.17 u/L
  BLOOD UREA NITROGEN: 16.83 mg/dL
  CHLORIDE: 99.33 MEQ/L
  CHOLESTEROL: 64.33 mg/dL
  CREATININE: 0.55 mg/dL
  GLUCOSE: 173.5 mg/dL
  PHOSPHORUS: 10.08 mg/dL
  POTASSIUM: 6.23 MEQ/L
  TOTAL BILIRUBIN: 0.52 mg/dL
  TOTAL PROTEIN: 6.35 G/DL
[2]
  BASOPHIL: 0%
  EOSINOPHIL: 0.17%
  ERYTHROCYTE COUNT: 6.12 x10E6/uL
  HEMATOCRIT: 37.08%
  LEUKOCYTE COUNT: 11.87 x10E3/uL
  LYMPHOCYTE: 83.33%
  MEAN CORPUSCULAR HEMOGLOBIN: 24.25 pg
  MEAN CORPUSCULAR HEMOGLOBIN CONCENTRATION: 39.97 G/DL
  MEAN CORPUSCULAR VOLUME: 60.65 fL
  MONOCYTE: 1.5%
  NEUTROPHIL: 15%
  PLATELET COUNT: 1042.83 x10E3/uL
  ALANINE AMINOTRANSFERASE: 46 u/L
  ALBUMIN: 3.82 G/DL
  ALKALINE PHOSPHATASE: 369.5 u/L
  ASPARTATE AMINOTRANSFERASE: 65 u/L
  BLOOD UREA NITROGEN: 16.33 mg/dL
  CHLORIDE: 100.67 MEQ/L
  CHOLESTEROL: 57.17 mg/dL
  CREATININE: 0.53 mg/dL
  GLUCOSE: 163.33 mg/dL
  PHOSPHORUS: 9.53 mg/dL
  POTASSIUM: 6.27 MEQ/L
  TOTAL BILIRUBIN: 0.55 mg/dL
  TOTAL PROTEIN: 6.32 G/DL
[3]
  BASOPHIL: 0%
  EOSINOPHIL: 0%
  ERYTHROCYTE COUNT: 6.11 x10E6/uL
  HEMATOCRIT: 38.43%
  LEUKOCYTE COUNT: 11.83 x10E3/uL
  LYMPHOCYTE: 84.67%
  MEAN CORPUSCULAR HEMOGLOBIN: 24.53 pg
  MEAN CORPUSCULAR HEMOGLOBIN CONCENTRATION: 39 G/DL
  MEAN CORPUSCULAR VOLUME: 62.8 fL
  MONOCYTE: 1.67%
  NEUTROPHIL: 13.67%
  PLATELET COUNT: 1383.67 x10E3/uL
  ALANINE AMINOTRANSFERASE: 32.67 u/L
  ALBUMIN: 4 G/DL
  ALKALINE PHOSPHATASE: 373.67 u/L
  ASPARTATE AMINOTRANSFERASE: 53 u/L
  BLOOD UREA NITROGEN: 15.67 mg/dL
  CHLORIDE: 99.33 MEQ/L
  CHOLESTEROL: 78 mg/dL
  CREATININE: 0.5 mg/dL
  GLUCOSE: 162 mg/dL
  PHOSPHORUS: 11 mg/dL
  POTASSIUM: 5.93 MEQ/L
  TOTAL BILIRUBIN: 0.33 mg/dL
  TOTAL PROTEIN: 6.6 G/DL
[4]
  BASOPHIL: 0%
  EOSINOPHIL: 0.33%
  ERYTHROCYTE COUNT: 6.65 x10E6/uL
  HEMATOCRIT: 39.33%
  LEUKOCYTE COUNT: 11.3 x10E3/uL
  LYMPHOCYTE: 91%
  MEAN CORPUSCULAR HEMOGLOBIN: 23.1 pg
  MEAN CORPUSCULAR HEMOGLOBIN CONCENTRATION: 39.1 G/DL
  MEAN CORPUSCULAR VOLUME: 59.13 fL
  MONOCYTE: 0.67%
  NEUTROPHIL: 8%
  PLATELET COUNT: 1162.33 x10E3/uL
  ALANINE AMINOTRANSFERASE: 35 u/L
  ALBUMIN: 3.83 G/DL
  ALKALINE PHOSPHATASE: 381 u/L
  ASPARTATE AMINOTRANSFERASE: 55 u/L
  BLOOD UREA NITROGEN: 13.67 mg/dL
  CHLORIDE: 97.67 MEQ/L
  CHOLESTEROL: 67.67 mg/dL
  CREATININE: 0.57 mg/dL
  GLUCOSE: 169 mg/dL
  PHOSPHORUS: 12.13 mg/dL
  POTASSIUM: 6.2 MEQ/L
  TOTAL BILIRUBIN: 0.43 mg/dL
  TOTAL PROTEIN: 6.3 G/DL
[5]
  BASOPHIL: 0%
  EOSINOPHIL: 0.33%
  ERYTHROCYTE COUNT: 6.76 x10E6/uL
  HEMATOCRIT: 40.83%
  LYMPHOCYTE: 90%
  MEAN CORPUSCULAR HEMOGLOBIN: 24.27 pg
  MEAN CORPUSCULAR HEMOGLOBIN CONCENTRATION: 40.07 G/DL
  MEAN CORPUSCULAR VOLUME: 60.57 fL
  MONOCYTE: 1%
  NEUTROPHIL: 8.67%
  PLATELET COUNT: 1353.67 x10E3/uL
  ALANINE AMINOTRANSFERASE: 23.67 u/L
  ALBUMIN: 3.93 G/DL
  ALKALINE PHOSPHATASE: 317 u/L
  ASPARTATE AMINOTRANSFERASE: 55.67 u/L
  BLOOD UREA NITROGEN: 14.67 mg/dL
  CHLORIDE: 97.67 MEQ/L
  CHOLESTEROL: 88.33 mg/dL
  CREATININE: 0.63 mg/dL
  GLUCOSE: 135.67 mg/dL
  POTASSIUM: 6.83 MEQ/L
  TOTAL BILIRUBIN: 0.47 mg/dL
[6]
  BASOPHIL: 0%
  EOSINOPHIL: 0%
  ERYTHROCYTE COUNT: 7.1 x10E6/uL
  HEMATOCRIT: 41.93%
  LEUKOCYTE COUNT: 12.47 x10E3/uL
  LYMPHOCYTE: 88.67%
  MEAN CORPUSCULAR HEMOGLOBIN: 23.53 pg
  MEAN CORPUSCULAR HEMOGLOBIN CONCENTRATION: 39.7 G/DL
  MEAN CORPUSCULAR VOLUME: 59.33 fL
  MONOCYTE: 0.33%
  NEUTROPHIL: 11%
  PLATELET COUNT: 1164.33 x10E3/uL
  ALANINE AMINOTRANSFERASE: 37 u/L
  ALBUMIN: 3.8 G/DL
  ALKALINE PHOSPHATASE: 263.33 u/L
  ASPARTATE AMINOTRANSFERASE: 65.67 u/L
  BLOOD UREA NITROGEN: 13.67 mg/dL
  CHLORIDE: 98.33 MEQ/L
  CHOLESTEROL: 79.67 mg/dL
  CREATININE: 0.6 mg/dL
  GLUCOSE: 142.33 mg/dL
  PHOSPHORUS: 12.27 mg/dL
  POTASSIUM: 6.23 MEQ/L
  TOTAL BILIRUBIN: 0.4 mg/dL
  TOTAL PROTEIN: 6.3 G/DL

Reference: ChEMBL document CHEMBL3885881, “DrugMatrix”
